Assay [1] concerns K. pneumoniae B-88 producing metallo beta-lactamase enzymes. Briefly: Time kill study against K. pneumoniae B-88. It counts as cell-based. Conditions: 8 mcg/ml alone. How it is done:
(§1) In general, the antibacterial activity of compositions according to invention was studied by performing time kill studies. In a typical time kill study, the freshly grown cultures were diluted to the required cell density (initial starting inoculum) in cation adjusted Muller Hinton broth medium (BD, USA). The antibacterial agents (either alone or in combination) at the required concentrations were added into the culture-containing medium. The samples were incubated under shaking condition (120 rpm) at 37° C. Enumeration of viable bacterial count was done every 2 hour by diluting in normal saline and plating on to the Tryptic Soya Agar plates (BD, USA). The plates were incubated for 24 hours to arrive at a viable bacterial count. The results are expressed in terms of log10 CFU/ml. In general, the decrease of 1 log10 CFU/ml corresponds to 90% killing of bacteria. Similarly, 2 log10 CFU/ml reductions indicates to 99% killing of bacteria and 3 log10 CFU/ml reductions is equal to 99.9% killing of bacteria.

Assay [2] has as its system E. coli 7MP producing Class A and Class C beta-lactamase enzymes. The experiment in a line: Time kill study against E. coli 7MP. Format: cell-based. Conditions: for Change in Log10 CFU/ml over 0 hour count after 8 hours / Bacterial count (Log10 CFU/ml) 2 hours / Bacterial count (Log10 CFU/ml) 4 hours / Bacterial count (Log10 CFU/ml) 6 hours / Bacterial count (Log10 CFU/ml) 8 hours: Table 5, 4 mcg/ml alone; for Effect on bacterial count (in words): summary of Table 5, alone or in combination, throughout the duration of the study. As to the method:
as §1

Regarding `C[C@@H](O)[C@H]1C(=O)N2C(C(=O)O)=C(SCCN=CN)C[C@H]12` [Imipenem, reference compound], the “Bacterial count (Log10 CFU/ml) 0 hours” value in assay [1] (0 hours) was determined as 7.28 Log10 CFU/ml. Further, in assay [1], the “Change in Log10 CFU/ml over 0 hour count after 24 hours” value was 2.02 Log10 CFU/ml. Besides, the “Bacterial count (Log10 CFU/ml) 2 hours” value in assay [1] (2 hours) came to 8.04 Log10 CFU/ml. Besides, in assay [1] (4 hours), the “Bacterial count (Log10 CFU/ml) 4 hours” value came out at 8.65 Log10 CFU/ml. In addition, the “Bacterial count (Log10 CFU/ml) 6 hours” value in assay [1] (6 hours) is reported as 9.20 Log10 CFU/ml. Besides, in assay [1] (24 hours), the “Bacterial count (Log10 CFU/ml) 24 hours” value came out at 9.30 Log10 CFU/ml.
With `C[C@]1(Cn2ccnn2)[C@H](C(=O)O)N2C(=O)C[C@H]2S1(=O)=O` [Tazobactam, reference compound], in assay [2], the “Change in Log10 CFU/ml over 0 hour count after 8 hours” value is reported as 2.28 Log10 CFU/ml, the “Bacterial count (Log10 CFU/ml) 2 hours” value came out at 7.90 Log10 CFU/ml, the “Bacterial count (Log10 CFU/ml) 4 hours” value turned out to be 9.23 Log10 CFU/ml and the “Bacterial count (Log10 CFU/ml) 6 hours” value is given as 9.30 Log10 CFU/ml. Further, in assay [2], the “Bacterial count (Log10 CFU/ml) 8 hours” value is 9.36 Log10 CFU/ml and the “Effect on bacterial count (in words)” value is “did not reduce the bacterial count”.
In the case of `O=C(O)[C@H]1/C(=C/CO)O[C@@H]2CC(=O)N21` [Clavulanic acid, reference compound], in assay [2], the “Change in Log10 CFU/ml over 0 hour count after 8 hours” value stood at 2.28 Log10 CFU/ml, the “Bacterial count (Log10 CFU/ml) 2 hours” value is on record as 7.90 Log10 CFU/ml, the “Bacterial count (Log10 CFU/ml) 4 hours” value worked out at 9.23 Log10 CFU/ml and the “Bacterial count (Log10 CFU/ml) 6 hours” value stood at 9.30 Log10 CFU/ml. Moreover, in assay [2], the “Bacterial count (Log10 CFU/ml) 8 hours” value stood at 9.36 Log10 CFU/ml and the “Effect on bacterial count (in words)” value is given as “did not reduce the bacterial count”.
With `NC(=O)[C@@H]1CC[C@@H]2CN1C(=O)N2OS(=O)(=O)O` [Avibactam, reference compound], in assay [2], the “Change in Log10 CFU/ml over 0 hour count after 8 hours” value amounted to 2.28 Log10 CFU/ml, the “Bacterial count (Log10 CFU/ml) 2 hours” value amounted to 7.90 Log10 CFU/ml, the “Bacterial count (Log10 CFU/ml) 4 hours” value worked out at 9.23 Log10 CFU/ml and the “Bacterial count (Log10 CFU/ml) 6 hours” value is reported as 9.30 Log10 CFU/ml. Further, in assay [2], the “Bacterial count (Log10 CFU/ml) 8 hours” value is 9.36 Log10 CFU/ml and the “Effect on bacterial count (in words)” value is reported as “did not reduce the bacterial count”.

For the origin of these results see US20200316083A1, “ANTIBACTERIAL COMPOSITIONS” (WOCKHARDT LIMITED, priority 2016, published 2020).
